The values that follow come from ChEMBL document CHEMBL1201862, “PubChem BioAssay data set” (2004).

Common to all, as to experiment: NCI-60 cell line screen, 48 h
The subject of test [1] is 786-0.
The test system of test [2] is ACHN.
Test [3] relates to COLO 205.
In test [4] the test system is HCT-15.
The test system of test [5] is IGROV-1.
Test [6] concerns MOLT-4.
Test [7] has as its system Malme-3M.
Test [8] concerns NCI-H226.
Test [9] deals with NCI-H522.
The test system of test [10] is SF-295.
Test [11] deals with SF-539.
Test [12] concerns SNB-75.
The subject of test [13] is UACC-62.
Test [14] has as its system M14.
Test [15] relates to OVCAR-4.
Test [16] concerns SR.

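Assay format: 96-well plates, 48-hour exposure. GI50: concentration for 50% inhibition of growth.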 The source made the active and inactive calls. Cut-off read from the data, not from the text of the source: active = GI50 up to about 1.1 µM and inactive = higher.

Regarding `Cc1nc(-n2nc(-c3ccccc3)cc2-c2ccccc2)sc1C(=O)/C=C/c1ccc(Cl)cc1`, the GI50 was 14.4 µM (inactive) in test [1]; 20.7 µM (inactive) in test [2]; 16.5 µM (inactive) in test [3]; 22.2 µM in test [4]; 27.7 µM (inactive) in test [5]; 11.7 µM (inactive) in test [6]. The GI50 in test [7] was 22.4 µM (inactive); in test [8], 16 µM (inactive); in test [9], 11.7 µM (inactive); in [10], 15.3 µM (inactive); in test [11] it was 14.3 µM (inactive); in test [12] it was 6.1 µM (inactive). For the same molecule, the GI50 in test [13] is 14.1 µM (inactive).
Regarding `CCOC(=O)C(=O)C1C(=O)Nc2ccccc21` (stereo not given), the GI50 in test [1], in test [2], in [3], in test [5], in test [14] and in test [6] was > 100 µM (inactive) throughout. Further, the GI50 in test [7], in test [8], in test [15], in [10], in [12] and in test [13] was > 100 µM (inactive) each time.
For `CCCCCC1CC=CC(NC(=O)OCc2ccccc2)C1/C=C/CCCC1OCCO1` (stereo not given), the GI50 in [1] was > 100 µM (inactive); in [2] it was 24.1 µM (inactive); in test [3] it was 44.2 µM (inactive); in test [4] it was 86.7 µM; in [5], > 100 µM (inactive); in test [14], > 100 µM (inactive). Also, the GI50 in test [6] was 12.5 µM (inactive); in [7], 50.6 µM (inactive); in test [8], 30.9 µM (inactive); in test [9] it was 20.8 µM (inactive); in test [15], > 72.9 µM (inactive); in test [10], 66.5 µM (inactive). Moreover, the results for the GI50 in [11], in test [12] and in test [13] were > 100 µM (inactive), > 56 µM (inactive) and > 93.5 µM (inactive), respectively.
For `[N-]=[N+]=NC(c1cn(C2CC(O)C(CO)O2)c(=O)[nH]c1=O)C(I)I` (stereo not given), the GI50 in test [1] was > 100 µM (inactive); in [2], > 100 µM (inactive); in [3] it was > 100 µM (inactive); in test [5], 87.7 µM (inactive); in test [14], > 100 µM (inactive); in [6], > 100 µM (inactive). Further, the GI50 in [7] is > 100 µM (inactive); in test [8] it was 9.55 µM (inactive); in [15] it was 75.7 µM (inactive); in [10] it was > 100 µM (inactive); in test [11] it was > 100 µM (inactive); in test [16] it was > 100 µM (inactive). Moreover, the GI50 in test [13] is > 100 µM (inactive).
For `C/C(=N\NC(=O)c1ccccc1O)C1=CNc2ccccc2S1`, the GI50 in test [1] was 4.71 µM (inactive); in test [2], 4.56 µM (inactive); in test [5], 5.92 µM (inactive); in test [14], 6.65 µM (inactive); in [6], 2.08 µM (inactive); in [7], 3.1 µM (inactive). The GI50 in test [8] is 4.35 µM (inactive); in [9], 3.34 µM (inactive); in test [15], 5.85 µM (inactive); in test [10], 4.01 µM (inactive); in [11], 2.4 µM (inactive); in [12] it was 8.2 µM (inactive). The GI50 is 3.82 µM (inactive) in test [16] and 2.44 µM (inactive) in [13].
Regarding `Cn1ncc(=S)[nH]c1=S`, the GI50 was > 100 µM (inactive) in [1]; > 100 µM (inactive) in test [2]; > 100 µM (inactive) in test [3]; over 100 µM in [4]; > 100 µM (inactive) in [5]; > 100 µM (inactive) in test [14]. For the same molecule, the GI50 in [6], in test [7], in [8], in test [9], in [15] and in test [10] was > 100 µM (inactive) throughout. Besides, the GI50 in [11] was > 100 µM (inactive); in test [12], 97.7 µM (inactive); in test [13], > 100 µM (inactive).
Regarding `Cc1ccc(S(=O)(=O)NNS(C)(=O)=O)cc1`, the GI50 in test [1] was > 100 µM (inactive); in test [2] it was > 100 µM (inactive); in test [3], > 100 µM (inactive); in test [4] it was over 100 µM; in test [5] it was > 100 µM (inactive); in test [14], > 100 µM (inactive). In addition, the GI50 in test [6], in test [7], in [9], in [15], in test [10] and in test [11] was > 100 µM (inactive) each time. In addition, the GI50 in test [12], in test [16] and in [13] was > 100 µM (inactive) throughout.
In the case of `CCOc1ccccc1NC(=O)CCc1n[nH]c(=S)o1`, the GI50 in test [1] was > 100 µM (inactive); in test [2], > 100 µM (inactive); in [5], > 10 µM (inactive); in test [14], > 100 µM (inactive); in test [6], > 100 µM (inactive); in [7] it was > 100 µM (inactive). The GI50 in [8], in [9], in test [10], in [11], in test [12] and in test [16] was > 100 µM (inactive) in each case. The GI50 in test [13] is > 100 µM (inactive).
In the case of `O=c1[nH]c2c(nc1NC13CC4CC(CC(C4)C1)C3)c(=O)oc1ccccc12`, the GI50 in [1] is > 100 µM (inactive); in [2] it was > 100 µM (inactive); in [3] it was > 100 µM (inactive); in test [4] it was over 100 µM; in test [5], > 100 µM (inactive); in test [14] it was 34.3 µM (inactive). Also, the GI50 is > 100 µM (inactive) in [6]; > 100 µM (inactive) in [7]; 27.9 µM (inactive) in [8]; 61.1 µM (inactive) in [9]; 14.9 µM (inactive) in [11]; 29.5 µM (inactive) in test [12]. In addition, the GI50 in test [16] and in [13] was > 100 µM (inactive) throughout.
`CCOC(=O)C1Oc2ccc([N+](=O)[O-])cc2C1(C)O` (stereo not given): the GI50 in [1] is > 100 µM (inactive); in test [2], > 100 µM (inactive); in test [3], > 100 µM (inactive); in test [4] it was over 100 µM; in [5], > 100 µM (inactive); in test [14], > 100 µM (inactive). Further, the GI50 in [6], in test [7], in [8], in [9], in test [15] and in [10] was > 100 µM (inactive) throughout. Further, the GI50 in test [11], in test [12], in test [16] and in test [13] was > 100 µM (inactive) throughout.
With `CCOC(OC1=C(C#N)CCC1)C(CC)[Se]c1ccccc1` (stereo not given), the GI50 in test [1] is 15 µM (inactive); in test [2], 29.8 µM (inactive); in [3], 19.5 µM (inactive); in test [4] it was 25.6 µM; in test [5] it was 24.9 µM (inactive); in test [14], 15.2 µM (inactive). Besides, the GI50 was 16.8 µM (inactive) in [6]; 11.4 µM (inactive) in test [7]; 19.2 µM (inactive) in test [8]; 13.8 µM (inactive) in [9]; 16.1 µM (inactive) in test [15]; 16.6 µM (inactive) in [10]. Further, the GI50 is 19 µM (inactive) in [11], 24.2 µM (inactive) in test [12], 7.19 µM (inactive) in test [16] and 19 µM (inactive) in test [13].
`O=S1(=O)c2ccccc2N=C(c2ccccc2Cl)CC1c1ccc(F)cc1` (stereo not given): the GI50 is 16.6 µM (inactive) in [1]; 18.4 µM (inactive) in test [2]; 21.5 µM (inactive) in [3]; 18.1 µM in test [4]; 17.4 µM (inactive) in test [5]; 19 µM (inactive) in [14]. Further, the GI50 in [6] was 13.7 µM (inactive); in test [7], 20 µM (inactive); in [9] it was 13.6 µM (inactive); in [15] it was 18.4 µM (inactive); in test [10], 18.2 µM (inactive); in test [11] it was 20.3 µM (inactive). The GI50 in test [12] is 25.5 µM (inactive); in test [13] it was 15.8 µM (inactive).
On to `Cc1noc(C)c1C1=CCCCc2ccccc21`, for which the GI50 in [1] was > 100 µM (inactive); in [2], 87.9 µM (inactive); in test [3], > 100 µM (inactive); in [4], 99.8 µM; in test [5], > 100 µM (inactive); in [14] it was 79.6 µM (inactive). Further, the GI50 is 25.7 µM (inactive) in test [6]; 97.5 µM (inactive) in test [7]; 36.3 µM (inactive) in test [9]; > 100 µM (inactive) in test [15]; > 100 µM (inactive) in test [10]; > 100 µM (inactive) in [11]. The GI50 is 23.4 µM (inactive) in test [12], 16.6 µM (inactive) in test [16] and 64.3 µM (inactive) in [13].
On to `CC1=Nn2c(nnc2-c2ccccc2Cl)NC(C)(C)C1`, for which the GI50 was > 100 µM (inactive) in [1]; > 100 µM (inactive) in [2]; 54.2 µM (inactive) in test [3]; 51.9 µM in test [4]; > 100 µM (inactive) in test [5]; > 100 µM (inactive) in test [14]. Besides, the GI50 in test [6] was 47.3 µM (inactive); in [8] it was > 100 µM (inactive); in test [9] it was 23.8 µM (inactive); in test [15], > 100 µM (inactive); in [10], > 100 µM (inactive); in test [11] it was > 100 µM (inactive). The GI50 in test [12] is > 100 µM (inactive); in [16] it was 25.5 µM (inactive); in [13], > 100 µM (inactive).
